Measurements taken from PMC7942396, “Drug Repurposing Screen for Compounds Inhibiting the Cytopathic Effect of SARS-CoV-2” (Frontiers in Pharmacology, 2021).
pEC50: −log10 of the molar value. Counter-ions that a name gives are not always drawn. Like-named read-outs stand apart in the source and are kept apart here.

Tests used:
[1] = human, cited from earlier work; for Cmax: Single dose 600 mg PO, ref Winstanley et al. (1987)
[2] = in vitro; details: African green monkey
[3] = system: SARS-CoV-2 (USA_WA1/2020); assay: microbe, parasite or virus in culture; assay type: cell-based; details: for pEC50: read-out: CPE EC50; for EC50: Severe acute respiratory syndrome coronavirus 2, Vero C1008, read-out: CPE EC50 (uM)
[4] = system: Vero E6 cells; details: Vero E6 cells without virus, 72 h
[5] = Severe acute respiratory syndrome coronavirus 2, Vero C1008, read-out: CPE % Efficacy
[6] = Severe acute respiratory syndrome coronavirus 2, Vero C1008, SARS-CoV-2 CPE assay, Vero E6 cells, confirmed anti-SARS-CoV-2 compounds
[7] = Severe acute respiratory syndrome coronavirus 2, Vero C1008, SARS-CoV-2 CPE assay, Vero E6 cells, efficacy, read-out: CPE % Efficacy
[8] = Severe acute respiratory syndrome coronavirus 2, Vero C1008, SARS-CoV-2 CPE assay, Vero E6 cells, read-out: CPE % Efficacy
[9] = Severe acute respiratory syndrome coronavirus 2, Vero C1008, SARS-CoV-2 CPE assay, Vero E6 cells
[10] = Severe acute respiratory syndrome coronavirus 2, Vero C1008, 72 h
[11] = Severe acute respiratory syndrome coronavirus 2, Vero C1008, […], DMSO 0%, no-virus control 100%, hit confirmation, read-out: CPE % efficacy

Structure (SMILES) | cytotoxicity [2] [%] | cytotoxicity at 72 h [2] [%] | pEC50 [3, 6] | Emax [3, 7] [%] | CC50 [2] [µM] | other results
CNCCCC12CCC(c3ccccc31)c1ccccc12 [Maprotiline hydrochloride, reference compound] | < 30 | – | – | – | – | Elimination T1/2 ([1]; Single dose 75 mg PO, ref Maguire et al. (1980)): 45 h; Emax [3, 5]: 104%
CN1CCC[C@@H]1CCO[C@](C)(c1ccccc1)c1ccc(Cl)cc1 [Clemastine fumarate, reference compound] | < 30 | – | – | – | – | Elimination T1/2 ([1]; Single dose 1.34 mg PO, ref Schran et al. (1996)): 21.3 ± 11.6 h
COCCN1CCN(Cc2ccc(-c3n[nH]c4c3C(=O)c3c(NC(=O)NN5CCOCC5)cccc3-4)cc2)CC1 [RGB-286638] | – | 37.9 | 5.55 | 111 | – | CC50 at 72 h [2]: 0.32 µM
O=c1ccc2ccc(OCCCCN3CCN(c4cccc5sccc45)CC3)cc2[nH]1 [Brexpiprazole] | 25.1 | – | – | – | 11.2 | Emax [3, 8]: 94.9%; pEC50 [3, 9]: 4.85
CN1CCCCC1CCN1c2ccccc2Sc2ccc([S+](C)[O-])cc21 (stereo not drawn) [Mesoridazine] | 16.1 | – | – | – | 15.8 | Emax [3, 5]: 43.5%; EC50 [3]: 12.6 µM
CCOC(=O)C1=C(COCCN)NC(C)=C(C(=O)OC)C1c1ccccc1Cl (stereo not drawn) [Amlodipine] | 0 | – | – | – | – | Emax [3, 8]: 99.8%; pEC50 [3, 9]: 4.90
S=C(NCc1ccc2c(c1)OCO2)N1CCN(c2ncnc3c2oc2ccccc23)CC1 [Amuvatinib] | 30.1 | – | 5.45 | 69.8 | 3.16 | –
Cc1ccc(-c2cc(C(F)(F)F)nn2-c2ccc(S(N)(=O)=O)cc2)cc1 [Celecoxib] | 9 | – | 4.95 | 79.2 | 15.8 | –
CN(C)[C@@H](CCOc1cccc2ccccc12)c1ccccc1 [Dapoxetine] | – | 32 | 5.00 | 82.6 | – | –
O=C(Nc1ccc(-c2ccnc(Nc3ccc(N4CCOCC4)cc3)n2)cc1)C1CCCN1 (stereo not drawn) [XL019] | 61.8 | – | – | – | 8.91 | Emax [3, 8]: 53.9%; pEC50 [3, 9]: 4.85
CCNCCc1ccc(CN(CC)c2cc(OC)ccc2[C@@H]2CCc3cc(O)ccc3C2)cc1 [Elacestrant] | – | 104 | 5.40 | 104 | – | CC50 at 72 h [2]: 12.6 µM
Cc1cc(O)c2c(c1)O[C@@]1(C)CC[C@H]3C(C)(C)CCC[C@]34CO[C@@H]2[C@H]41 [Siccanin] | – | 0 | – | – | – | Emax [3, 8]: 104%; pEC50 [3, 9]: 4.90
CCN(CC)CCN(Cc1ccc(-c2ccc(C(F)(F)F)cc2)cc1)C(=O)Cn1c(SCc2ccc(F)cc2)nc(=O)c2c1CCC2 [Darapladib] | 102 | – | 5.55 | 75.1 | 11.2 | –
OCCOc1ccc(/C(=C(/CCCl)c2ccccc2)c2ccccc2)cc1 [Ospemifene] | 26.6 | – | – | – | 12.6 | Emax [3, 5]: 48.2%; EC50 [3]: 12.6 µM
CCCCCCCCn1cc(CC(N)=O)c2cc(-c3cccc(C)c3)ccc21 [Cysmethynil] | – | 106 | 4.95 | 89.1 | – | –
CC/C(=C(\c1ccccc1)c1ccc(OCCN(C)C)cc1)c1ccccc1 [Tamoxifen] | 93.9 | – | – | 102 | – | –
CCCCN(CCCC)CCC(O)c1cc2c(Cl)cc(Cl)cc2c2cc(C(F)(F)F)ccc12 (stereo not drawn) [Halofantrine] | 37.6 | – | 5.25 | 73.4 | – | –
COc1ccc2c(c1)[C@]1(C[C@H]1c1ccc3c(/C=C/c4ccc(CN5C[C@@H](C)O[C@@H](C)C5)cc4)n[nH]c3c1)C(=O)N2 [CFI-400945] | – | 31.4 | 4.95 | 77.8 | – | –
COC(=O)[C@H]1[C@H]2C[C@@H]3c4[nH]c5cc(OC)ccc5c4CCN3C[C@H]2C[C@@H](OC(=O)c2cc(OC)c(OC)c(OC)c2)[C@@H]1OC [Reserpine] | 13.4 | – | 4.95 | 91.8 | 19.9 | –
CN1CCCN(C(c2ccccc2)c2ccc(Cl)cc2)CC1 (stereo not drawn) [Homochlorcyclizine] | 34.2 | – | 5.00 | 84.3 | 12.6 | –
CC(CN1c2ccccc2Sc2ccccc21)N(C)C (stereo not drawn) [Promethazine] | – | 15.4 | 4.95 | 94 | – | CC50 at 72 h [2]: 15.8 µM
CN(C)CCC=C1c2ccccc2CCc2ccccc21 [Amitriptyline hydrochloride] | 0 | – | – | – | – | Emax [3, 8]: 69.9%; pEC50 [3, 9]: 4.85
COc1cc(N2CCN(C)CC2)ccc1Nc1nccc(-c2cn(C)c3cnccc23)n1 [AZ-191] | 31.2 | – | 5.05 | 79.2 | 11.2 | –

Structure (SMILES) | cytotoxicity [2] [%] | cytotoxicity at 72 h [2] [%] | pEC50 [3, 6] | Emax [3, 7] [%] | CC50 [2] [µM] | other results
CC(CN(C)C)CN1c2ccccc2CCc2ccccc21 (stereo not drawn) [Trimipramine maleate] | 19.8 | – | 5.00 | 51.8 | 15.8 | –
CN(C)CCOC(c1ccccc1)c1ccc(Br)cc1 (stereo not drawn) [Bromodiphenhydramine] | – | 0 | – | – | – | Emax [3, 8]: 36%; pEC50 [3, 9]: 4.90
CN(C)CCCN1c2ccccc2Sc2ccccc21 [Promazine hydrochloride] | 9.4 | – | 5.00 | 55.8 | – | –
CCCc1cc(C)[nH]c(=O)c1CNC(=O)c1cc(-c2ccnc(N3CCN(C)CC3)c2)cc2c1cnn2C(C)C [GSK-343] | 16.6 | – | – | – | 10 | Emax [3, 8]: 51.7%; pEC50 [3, 9]: 4.85
Oc1ccc(-c2nc(-c3ccncc3)c(-c3ccc(F)cc3)[nH]2)cc1 [SB-202190] | – | 62.4 | 5.40 | 95.8 | – | –
CCCCCCC(C)(C)c1cc(O)c2c(c1)OC(C)(C)[C@H]1CC=C(CO)C[C@H]21 [Dexanabinol, reference compound] | < 30 | – | – | – | – | pEC50 [3, 10]: 5.00; Emax [3, 11]: 111%
Cn1c(Nc2ccc(C(F)(F)F)cc2)nc2cc(Oc3ccnc(-c4ncc(C(F)(F)F)[nH]4)c3)ccc21 [CHIR-265] | 92.7 | – | 6.10 | 31.7 | 0.32 | –
CSc1ccc(C(=O)/C=C/c2cc(C)c(OC(C)(C)C(=O)O)c(C)c2)cc1 [Elafibranor] | – | 0 | – | – | – | Emax [3, 8]: 55.7%; pEC50 [3, 9]: 4.70
CCN(CC)Cc1cc(Nc2ccnc3cc(Cl)ccc23)ccc1O.Cl.Cl.O.O [Amodiaquine dihydrochloride, reference compound] | – | – | – | – | – | Cmax [1]: 32 ± 3 ng/mL; Cmax ([1]; read-out: Cmax): 69 nM; % Cytotox [4]: <30%; CPE % Efficacy ([3]; […], DMSO 0%, no-virus control 100%, hit confirmation): 87.2%; pEC50 [3]: 5.40
COC(=O)[C@]1(C)CC[C@]2(C)CC[C@]3(C)C4=CC=C5C(=CC(=O)C(O)=C5C)[C@]4(C)CC[C@@]3(C)[C@@H]2C1 [Pristimerin, reference compound] | – | – | – | – | 1.1 | pEC50 [3, 10]: 6.96; Emax [3, 11]: 87.4%
Cc1cc(C2CCCCC2)n(O)c(=O)c1 [Ciclopirox] | – | 56.1 | 5.05 | 63.4 | – | CC50 at 72 h [2]: 2.51 µM
CC1(C)CC(=O)c2c(C(F)(F)F)nn(-c3ccc(C(N)=O)c(N[C@H]4CC[C@H](OC(=O)CN)CC4)c3)c2C1 [SNX-5422] | 27.4 | – | 5.80 | 33.8 | 0.56 | –
CCN(CC)CCOc1ccc2c(c1)C(=O)c1cc(OCCN(CC)CC)ccc1-2 [TILORONE] | – | 97.2 | 5.40 | 74.3 | – | CC50 at 72 h [2]: 11.2 µM
C[C@@H](C(=O)Nc1ccc(Cl)cc1)C1CCC(c2ccnc3ccc(F)cc23)CC1 (stereo partly drawn) [BMS-986205] | 37.7 | – | – | – | – | Emax [3, 8]: 69.8%
CCCCc1oc2ccccc2c1C(=O)c1cc(I)c(OCCN(CC)CC)c(I)c1 [Amiodarone hydrochloride, reference compound] | < 30 | – | – | – | – | Emax [3, 11]: 100%
CN1CCN(CCCN2c3ccccc3Sc3ccc(S(=O)(=O)N(C)C)cc32)CC1 [Thioproperazine dimethanesulfonate] | – | 19.6 | 5.05 | 54 | – | CC50 at 72 h [2]: 15.8 µM
CN1CCN(CC/C=C2/c3ccccc3Sc3ccc(S(=O)(=O)N(C)C)cc32)CC1 [THIOTHIXENE] | 108 | – | 5.40 | 70.6 | 12.6 | –
CNCCC=C1c2ccccc2CCc2ccccc21 [Pamelor] | 0 | – | – | – | – | Emax [3, 5]: 103%; EC50 [3]: 12.6 µM
COc1c(-c2ccc3cc(NS(C)(=O)=O)ccc3c2)cc(-n2ccc(=O)[nH]c2=O)cc1C(C)(C)C [ABT-333] | – | 42.5 | – | – | – | Emax [3, 8]: 48.7%; pEC50 [3, 9]: 4.90
CC(=O)OC[C@]12C[C@H](OC(=O)CC(C)C)C(C)=C[C@H]1O[C@@H]1[C@H](O)[C@@H](O)[C@@]2(C)[C@]12CO2 [HT-2 Toxin] | 98 | – | – | – | 0.13 | CPE % Efficacy [3]: 32.4%; pEC50 [3]: 7.65
CCC(=O)c1ccc2c(c1)N(CCCN(C)C)c1ccccc1S2 [Propionylpromazine hydrochloride] | – | 19.8 | 4.95 | 72.3 | – | –
O=C(/C=C/c1ccccc1)NC(NC(=S)Nc1cccc2cccnc12)C(Cl)(Cl)Cl (stereo not drawn) [Salubrinal] | 15.9 | – | 5.00 | 38.3 | 5.01 | –
